In the assay the target is JAK1 (Homo sapiens (Human), UniProt P23458). Description: Analysis of JAK1 activity inhibition ability (ADP-Glo Kinase Assay). Particulars: JAK1 enzyme, ADP-Glo luminescence, ATP 250 uM, IRS-itide substrate, 30° C. 40 minutes; read-out: IC50. It is filed as biochemical. An outline of the steps:
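ADP-Glo luminescence read-out of ADP production, with IC50 taken as the concentration halving JAK1 activity relative to control. Enzyme was incubated 40 min at 30 °C with compound, IRS-itide (40 ng/mL) and ATP (250 uM), concentrations as prepared in pH 7.5 Tris-HCl/MgCl2/BSA/DTT buffer.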
In general terms: ADP-Glo turns the ADP formed in a reaction into a luminescent signal.

The structures appear in SMILES notation.

JAK1, sequence (P23458 whole entry): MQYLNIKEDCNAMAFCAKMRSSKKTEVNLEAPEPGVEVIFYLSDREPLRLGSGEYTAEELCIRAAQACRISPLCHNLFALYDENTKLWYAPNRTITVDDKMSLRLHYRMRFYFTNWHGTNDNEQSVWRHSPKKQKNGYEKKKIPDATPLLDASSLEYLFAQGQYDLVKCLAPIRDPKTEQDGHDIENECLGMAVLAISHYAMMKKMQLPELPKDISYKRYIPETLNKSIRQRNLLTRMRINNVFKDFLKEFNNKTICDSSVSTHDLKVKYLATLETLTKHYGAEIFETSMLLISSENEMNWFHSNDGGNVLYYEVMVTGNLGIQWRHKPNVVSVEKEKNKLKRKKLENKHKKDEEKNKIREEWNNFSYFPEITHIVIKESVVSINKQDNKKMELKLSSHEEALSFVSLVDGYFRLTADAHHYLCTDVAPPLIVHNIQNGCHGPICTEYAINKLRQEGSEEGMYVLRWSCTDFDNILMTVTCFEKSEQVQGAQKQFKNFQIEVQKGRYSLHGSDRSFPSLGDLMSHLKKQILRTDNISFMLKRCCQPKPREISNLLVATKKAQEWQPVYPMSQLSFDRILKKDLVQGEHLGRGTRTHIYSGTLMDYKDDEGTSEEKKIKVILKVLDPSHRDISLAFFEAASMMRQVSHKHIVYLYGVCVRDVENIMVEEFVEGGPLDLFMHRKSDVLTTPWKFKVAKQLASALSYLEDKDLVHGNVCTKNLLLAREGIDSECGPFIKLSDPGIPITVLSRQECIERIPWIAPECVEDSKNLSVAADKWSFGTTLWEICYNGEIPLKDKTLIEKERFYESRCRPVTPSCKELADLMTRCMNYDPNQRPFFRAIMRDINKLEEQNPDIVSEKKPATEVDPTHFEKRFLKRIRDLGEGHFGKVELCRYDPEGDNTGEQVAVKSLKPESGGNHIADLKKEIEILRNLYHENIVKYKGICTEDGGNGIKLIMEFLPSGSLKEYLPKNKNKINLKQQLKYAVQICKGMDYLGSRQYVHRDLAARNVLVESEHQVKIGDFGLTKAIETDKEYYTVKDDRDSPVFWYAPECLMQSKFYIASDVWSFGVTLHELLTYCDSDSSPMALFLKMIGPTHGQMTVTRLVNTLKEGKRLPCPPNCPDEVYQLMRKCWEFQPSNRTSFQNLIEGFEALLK

With `CCS(=O)(=O)N1CCC(n2cc(-c3cc(NC(=O)C4CC4)nc4[nH]ccc34)cn2)CC1` [Example 608, N-(4-(1-(1-(ethylsulfonyl)piperidin-4-yl)-1H-pyrazol-4-yl)-1H-pyrrolo[2,3-b]pyridin-6-yl)cyclopropanecarboxamide], the IC50 lay in the range of 0.02 to 0.2 µM.

Take `O=C(Nc1cc(-c2cnn(C3CCN(S(=O)(=O)C(F)(F)F)CC3)c2)c2cc[nH]c2n1)C1CC1` [Example 609, N-(4-(1-(1-((trifluoromethyl)sulfonyl)piperidin-4-yl)-1H-pyrazol-4-yl)-1H-pyrrolo[2,3-b]pyridin-6-yl)cyclopropanecarboxamide]: the IC50 lay in the range of 0.02 to 0.2 µM.

For `N#CCC(=O)N1CC(n2cc(-c3cc(NC(=O)C4CC4)nc4[nH]ccc34)cn2)C1` [Example 610, N-(4-(1-(1-(2-cyanoacetyl)azetidin-3-yl)-1H-pyrazol-4-yl)-1H-pyrrolo[2,3-b]pyridin-6-yl)cyclopropanecarboxamide], the IC50 was 0.02 to 0.2 µM.

As to `N#CCN1CCC(n2cc(-c3cc(NC(=O)C4CC4)nc4[nH]ccc34)cn2)CC1` [Example 611, N-(4-(1-(1-(cyanomethyl)piperidin-4-yl)-1H-pyrazol-4-yl)-1H-pyrrolo[2,3-b]pyridin-6-yl)cyclopropanecarboxamide], the IC50 was in the range of 0.02 to 0.2 µM.

As for `N#CCC1(N2CC=C(c3cc(NC(=O)C4CC4)nc4[nH]ccc34)CC2)COC1` [Example 612, N-(4-(1-(3-(cyanomethyl)oxetan-3-yl)-1,2,3,6-tetrahydropyridin-4-yl)-1H-pyrrolo[2,3-b]pyridine-6-yl) cyclopropanecarboxamide], the IC50 is above 0.2 µM.

For `CC1CN(C2(CC#N)COC2)CC=C1c1cc(NC(=O)C2CC2)nc2[nH]ccc12` (stereo not shown) [Example 613, N-(4-(1-(3-(cyanomethyl)oxetan-3-yl)-3-methyl-1,2,3,6-tetrahydropyridin-4-yl)-1H-pyrrolo[2,3-b]pyridin-6-yl)cyclopropanecarboxamide], the IC50 fell in the range of 0.02 to 0.2 µM.

Regarding `CC(C)(C)OC(=O)N1CC(CC#N)(N2CC=C(c3cc(NC(=O)C4CC4)nc4[nH]ccc34)CC2)C1` [Example 614, tert-butyl 3-(cyanomethyl)-3-(4-(6-(cyclopropanecarboxamido)-1H-pyrrolo[2,3-b]pyridin-4-yl)-3,6-dihydropyridin-1 (2H)-yl)azetidine-1-carboxylate], the IC50 was above 0.2 µM.

On to `N#CCC1(N2CC=C(c3cc(NC(=O)C4CC4)nc4[nH]ccc34)CC2)CNC1` [Example 615, N-(4-(1-(3-(cyanomethyl)azetidin-3-yl)-1,2,3,6-tetrahydropyridin-4-yl)-1H-pyrrolo[2,3-b]pyridin-6-yl)cyclopropanecarboxamide], for which the IC50 was 0.02 to 0.2 µM.

Take `CCS(=O)(=O)N1CC(CC#N)(N2CC=C(c3cc(NC(=O)C4CC4)nc4[nH]ccc34)CC2)C1` [Example 616, N-(4-(1-(3-(cyanomethyl)-1-(ethylsulfonyl)azetidin-3-yl)-1,2,3,6-tetrahydropyridin-4-yl)-1H-pyrrolo[2,3-b]pyridin-6-yl)cyclopropanecarboxamide]: the IC50 was below 0.02 µM.

As for `CC(C)S(=O)(=O)N1CC(CC#N)(N2CC=C(c3cc(NC(=O)C4CC4)nc4[nH]ccc34)CC2)C1` [Example 617, N-(4-(1-(3-(cyanomethyl)-1-(isopropylsulfonyl)azetidin-3-yl)-1,2,3,6-tetrahydropyridin-4-yl)-1H-pyrrolo[2,3-b]pyridin-6-yl)cyclopropanecarboxamide], the IC50 is below 0.02 µM.

On to `N#CCCCS(=O)(=O)N1CC(CC#N)(N2CC=C(c3cc(NC(=O)C4CC4)nc4[nH]ccc34)CC2)C1` [Example 618, N-(4-(1-(3-(cyanomethyl)-1-((3-cyanopropyl)sulfonyl)azetidin-3-yl)-1,2,3,6-tetrahydropyridin-4-yl)-1H-pyrrolo[2,3-b]pyridin-6-yl)cyclopropanecarboxamide], for which the IC50 is below 0.02 µM.

For `N#CCC1(N2CC=C(c3cc(NC(=O)C4CC4)nc4[nH]ccc34)CC2)CN(S(=O)(=O)C(F)(F)F)C1` [Example 619, N-(4-(1-(3-(cyanomethyl)-1-((trifluoromethyl)sulfonyl)azetidin-3-yl)-1,2,3,6-tetrahydropyridin-4-yl)-1H-pyrrolo[2,3-b]pyridin-6-yl)cyclopropanecarboxamide], the IC50 was below 0.02 µM.

Regarding `N#CCC1(N2CC=C(c3cc(NC(=O)C4CC4)nc4[nH]ccc34)CC2)CN(C2CCNCC2)C1` [Example 620, N-(4-(1-(3-(cyanomethyl)-1-(piperidin-4-yl)azetidin-3-yl)-1,2,3,6-tetrahydropyridin-4-yl)-1H-pyrrolo[2,3-b]pyridin-6-yl)cyclopropanecarboxamide], the IC50 was above 0.2 µM.

Take `N#CCC1(N2CC=C(c3cc(NC(=O)C4CC4)nc4[nH]ccc34)CC2)CN(C2CCN(C(=O)c3nc(C(F)(F)F)cs3)CC2)C1` [Example 621, N-(4-(1-(3-(cyanomethyl)-1-(1-(4-(trifluoromethyl)thiazole-2-carbonyl)piperidin-4-yl)azetidin-3-yl)-1,2,3,6-tetrahydropyridin-4-yl)-1H-pyrrolo[2,3-b]pyridin-6-yl)cyclopropanecarboxamide]: the IC50 was in the range of 0.02 to 0.2 µM.

In the case of `N#CCC(=O)N1CCC(N2CC(CC#N)(N3CC=C(c4cc(NC(=O)C5CC5)nc5[nH]ccc45)CC3)C2)CC1` [Example 622, N-(4-(1-(1-(1-(2-cyanoacetyl)piperidin-4-yl)-3-(cyanomethyl)azetidin-3-yl)-1,2,3,6-tetrahydropyridin-4-yl)-1H-pyrrolo[2,3-b]pyridin-6-yl)cyclopropanecarboxamide], the IC50 was 0.02 to 0.2 µM.

As to `N#CCC1(N2CC=C(c3cc(NC(=O)C4CC4)nc4[nH]ccc34)CC2)CN(S(=O)(=O)c2ccc(F)cc2)C1` [Example 623, N-(4-(1-(3-(cyanomethyl)-1-((4-fluorophenyl)sulfonyl)azetidin-3-yl)-1,2,3,6-tetrahydropyridin-4-yl)-1H-pyrrolo[2,3-b]pyridin-6-yl)cyclopropanecarboxamide], the IC50 fell in the range of 0.02 to 0.2 µM.

Turning to `N#CCC1(N2CC=C(c3cc(NC(=O)C4CC4)nc4[nH]ccc34)CC2)CN(C(=O)NCC(F)(F)F)C1` [Example 624, 3-(cyanomethyl)-3-(4-(6-(cyclopropanecarboxamido)-1H-pyrrolo[2,3-b]pyridin-4-yl)-3,6-dihydropyridin-1 (2H)-yl)-N-(2,2,2-trifluoroethyl)azetidine-1-carboxamide], the concentration for half-maximal inhibition (IC50) is 0.02 to 0.2 µM.

As to `N#CCC1(N2CC=C(c3cc(NC(=O)C4CC4)nc4[nH]ccc34)CC2)CN(C(=O)CC(F)(F)F)C1` [Example 625, N-(4-(1-(3-(cyanomethyl)-1-(3,3,3-trifluoropropanoyl)azetidin-3-yl)-1,2,3,6-tetrahydropyridin-4-yl)-1H-pyrrolo[2,3-b]pyridin-6-yl)cyclopropanecarboxamide], the concentration for half-maximal inhibition (IC50) is 0.02 to 0.2 µM.

Regarding `CCS(=O)(=O)N1CC(CC#N)(N2CC=C(c3cc(NC(=O)C4CC4)nc4[nH]ccc34)C(C)C2)C1` (stereo not shown) [Example 626, N-(4-(1-(3-(cyanomethyl)-1-(ethylsulfonyl)azetidin-3-yl)-3-methyl-1,2,3,6-tetrahydropyridin-4-yl)-1H-pyrrolo[2,3-b]pyridin-6-yl)cyclopropanecarboxamide], the IC50 was below 0.02 µM.

With `CCS(=O)(=O)N1CC(CC#N)(N2CC=C(c3cc(NC(=O)C4CC4)nc4[nH]ccc34)[C@H](C)C2)C1` [Example 627, (S)—N-(4-(1-(3-(cyanomethyl)-1-(ethylsulfonyl)azetidin-3-yl)-3-methyl-1,2,3,6-tetrahydropyridin-4-yl)-1H-pyrrolo[2,3-b]pyridin-6-yl)cyclopropanecarboxamide], the IC50 is below 0.02 µM.

As for `C[C@@H]1CN(C2(CC#N)CN(S(=O)(=O)C(F)(F)F)C2)CC=C1c1cc(NC(=O)C2CC2)nc2[nH]ccc12` [Example 628, (S)—N-(4-(1-(3-(cyanomethyl)-1-((trifluoromethyl)sulfonyl)azetidin-3-yl)-3-methyl-1,2,3,6-tetrahydropyridin-4-yl)-1H-pyrrolo[2,3-b]pyridin-6-yl)cyclopropanecarboxamide], the IC50 is below 0.02 µM.

Turning to `CCS(=O)(=O)Oc1ccc(-c2cc(NC(=O)C3CC3)nc3[nH]ccc23)cc1` [Example 629, 4-(6-(cyclopropanecarboxamido)-1H-pyrrolo[2,3-b]pyridin-4-yl)phenyl ethanesulfonate], the IC50 is 0.02 to 0.2 µM.

With `O=C(Nc1cc(-c2ccc(OS(=O)(=O)c3ccc(F)cc3)cc2)c2cc[nH]c2n1)C1CC1` [Example 630, 4-(6-(cyclopropanecarboxamido)-1H-pyrrolo[2,3-b]pyridin-4-yl)phenyl 4-fluorobenzenesulfonate], the IC50 is above 0.2 µM.

As to `CCCS(=O)(=O)Oc1ccc(-c2cc(NC(=O)C3CC3)nc3[nH]ccc23)cc1` [Example 631, 4-(6-(cyclopropanecarboxamido)-1H-pyrrolo[2,3-b]pyridin-4-yl)phenyl propane-1-sulfonate], the concentration for half-maximal inhibition (IC50) lay in the range of 0.02 to 0.2 µM.

For `CCCCS(=O)(=O)Oc1ccc(-c2cc(NC(=O)C3CC3)nc3[nH]ccc23)cc1` [Example 632, 4-(6-(cyclopropanecarboxamido)-1H-pyrrolo[2,3-b]pyridin-4-yl)phenyl butane-1-sulfonate], the IC50 was in the range of 0.02 to 0.2 µM.

Take `CC(C)S(=O)(=O)Oc1ccc(-c2cc(NC(=O)C3CC3)nc3[nH]ccc23)cc1` [Example 633, 4-(6-(cyclopropanecarboxamido)-1H-pyrrolo[2,3-b]pyridin-4-yl)phenyl propane-2-sulfonate]: the IC50 was in the range of 0.02 to 0.2 µM.

Take `O=C(Nc1cc(-c2ccc(OS(=O)(=O)C3CCCCC3)cc2)c2cc[nH]c2n1)C1CC1` [Example 634, 4-(6-(cyclopropanecarboxamido)-1H-pyrrolo[2,3-b]pyridin-4-yl)phenyl cyclohexanesulfonate]: the IC50 was above 0.2 µM.

As to `O=C(Nc1cc(-c2ccc(OS(=O)(=O)CCCF)cc2)c2cc[nH]c2n1)C1CC1` [Example 635, 4-(6-(cyclopropanecarboxamido)-1H-pyrrolo[2,3-b]pyridin-4-yl)phenyl 3-fluoropropane-1-sulfonate], the IC50 was 0.02 to 0.2 µM.

A word on the IC50: it is the point on the concentration scale where inhibition reaches its midpoint.

Source of the values: patent US11524968B2, “Heterocyclic compound as a protein kinase inhibitor” (HK inno.N Corporation, priority 2017, dated 2022).
